# What was measured:
# [1] = tested on: human platelets; assay: Platelet chemotaxis toward ischemic/reperfused human aortic endothelial cells; format: cell-based; settings: thrombin-activated platelets
# Description: Primary human aortic endothelial cells were plated in 0.2% gelatin (Sigma) coated 96-well ChemoTx microplates and allowed to recover for 48 hours. Before the plate was placed in the modular incubator chamber (Billups-Rothenberg Inc.; Del Mar, Calif.) the media was replaced with serum-free media containing 10 mM Hepes. The plate was placed on ice and put into the air tight modular incubator chamber and flushed with a gas mixture of 5% CO2 and 95% N2 for 90 min to induce ischemia. The cell culture was then returned to a normoxic environment of atmospheric air/5% CO2 to simulate reperfusion, and allowed to recover for 4 hours in a cell culture incubator. Chemotaxis experiments were then performed.
# In particular, studies were performed to determine whether endogenous danger signals released by tissues undergoing ischemia/reperfusion cell injury induced platelet chemotaxis. Primary human aortic cells, plated in a 96-well ChemoTx plate NeuroProbeInc. Gaithersburg, Md. were placed on ice and put into an air tight modular incubator chamber that was flushed with a gas mixture of 5% CO2 and 95% N2 for 90 min to induce ischemia. The cell culture was then returned to a normoxic environment of atmospheric air/5% CO2 and allowed to recover for 4 hours in a cell culture incubator at 37° C.
# [2] = biological target: T1, platelet FPR (Homo sapiens, UniProt P21462); assay: Inhibition of platelet chemotaxis to fMLF in transwell migration assay; format: cell-based; settings: 1 U and 10 U; non-activated and thrombin-activated platelets; P<0.001
# T1 construct: endogenous in cells
# T1 sequence (P21462 1-350): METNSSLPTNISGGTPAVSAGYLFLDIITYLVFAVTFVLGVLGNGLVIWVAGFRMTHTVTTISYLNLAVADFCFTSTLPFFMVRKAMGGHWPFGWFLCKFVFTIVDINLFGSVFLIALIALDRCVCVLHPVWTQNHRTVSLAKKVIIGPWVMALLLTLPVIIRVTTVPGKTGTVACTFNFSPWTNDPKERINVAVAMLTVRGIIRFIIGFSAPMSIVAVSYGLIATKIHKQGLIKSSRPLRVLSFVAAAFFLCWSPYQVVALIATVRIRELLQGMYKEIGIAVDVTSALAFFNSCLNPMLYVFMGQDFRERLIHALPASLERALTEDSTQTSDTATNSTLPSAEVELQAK
# Description: In order to further confirm the specificity of the chemotactic response to N-formyl peptide binding of the FPR, platelet FPR was inhibited by several methods to establish its functional requirement for platelet chemotaxis. Platelets were pretreated with an FPR-specific antibody (α-FPR) capable of blocking the binding of N-formyl peptides to the FPR receptor, prior to the transwell migration assay. […] Additionally, platelets were treated with pertussis toxin, a specific inhibitor of the a-subunit of members of the Gi/o class of G-proteins required for FPR activation.
# Platelet migration was assessed using a 96-well ChemoTx® microplate (Neuro Probe, Gaithersburg Md.). For all chemotaxis experiments, different concentrations of stimulants were placed in the bottom wells of the microplate and the filter was positioned (2 μm pore size). The cell suspension was seeded onto the top of the filter (30 μl) and the microplates were incubated for 2 hrs at 37° C. For all chemokinesis experiments, different concentrations of stimulants were placed in the bottom wells of the microplate and the filter was positioned. […] The filter was then carefully removed and the migrated cells were counted by light microscopy. Results are expressed as the mean value (±SD) of total migrated cells, in triplicate samples, and are taken from five experiments independent.
substance,measurement,setting,value
pertussis toxin,effect of platelet treatment on chemotaxis toward ischemic aortic endothelial cells,[1],decreased chemotaxis
same,effect of platelet treatment with pertussis toxin on migration to fMLF,[2],significantly decreased migration

# Reference: patent publication US20060171944A1, “N-formyl peptide receptor mediation of platelet chemotaxis toward injured cells and activation of immune response” (priority 2002, published 2006)
